Where a SMILES comes first, the peptide text is derived from it. The star is where a group is joined. Cbz = O=C(OCc1ccccc1)*; CH2F = FC*
Experiments:
Type in all cases: cell-based, human
[1] = system: γ-secretase complex proteins; assay: γ-secretase complex protein levels by Western blot in H4 cells; details: zVAD treatment
Experimental: Protein levels of PS1, nicastrin, Pen2 and Aph1A (components of the γ-secretase complex) were determined by Western blot (WB) analysis in H4 cells. […] The immature form of nicastrin appeared to be increased earlier (6 hrs) concurrently with caspase-3 activation (FIG. 5A). Furthermore, PS1-NTF, PS1-CTF, Pen2 and Aph1A were also up regulated (FIG. 5A). STS treatment also led to the generation of a caspase-mediated fragment of PS1-CTF (indicated by an arrow as a PS1-CTF). […] As a control for protein loading, the same blot was reprobed with an anti-Cu, Zn-SOD Ab showing that Cu, Zn-SOD protein levels were not increased.

[2] = system: γ-secretase complex proteins; assay: γ-secretase complex protein levels by Western blot in A431 cells; details: after 6 hours of STS treatment
Experimental: Chinese Hamster Ovary (CHO) cells expressing APP751 and BACE (CAB), CHO cells expressing full-length APP and wild-type PS1 (CHO-APP751/PS1) or expressing C99 and wild-type PS1 (CHO-CC99/PS1), H4 human neuroglioma cells expressing APP751 (H4-APP751), mouse embryonic fibroblast (MEF), embryonic stem (ES) cells, and human epithelial A431 cells were grown as described previously (Marambaud, P. et al., Embo J 21, 1948-56 (2002); Cai, H. et al., Nat Neurosci 4, 233-4 (2001); Sato, N. et al., Nat Cell Biol 2, 863-70 (2000); Puglielli, L., Ellis, B. C., Saunders, A. J. & Kovacs, D. M., J Biol Chem 278, 19777-83 (2003); Wolfe, M. S. et al., Nature 398, 513-7 (1999)). For the induction of apoptosis, we used staurosporine or etoposide (Calbiochem (EMD Biosciences, San Diego, Calif.)). For Aβ measurements, cells were seeded at the density of 0.5×10^6 cells per well in 6 well plates. After 48 hours, cells were treated with either STS (1 μM) for 6 hours. In order to inhibit caspase activation a sister plate of cells was pre-treated with zVAD ([…], Enzyme Systems Products) for 1 hour before STS treatment. For time-course experiments, cells were seeded at the density of 2×10^6 cells per 100 mm dish and treated with STS (1 μM) or etoposide (100 μg/mL). At different time points (0, 3, 6, 9, 12 and 24 hours), the cells were scraped, centrifuged and then lysed in buffer containing 1% NP40. […]

[3] = system: BACE, PS1, nicastrin, Pen-2 and Aph1a mRNA; assay: Northern blot of BACE and γ-secretase complex component mRNA in H4-APP751 cells; details: after 6 hours of STS treatment
Experimental: FIG. 14 provides digitized images showing that transcription of BACE and γ-secretase complex components is decreased during apoptosis. Northern Blot analysis: H4-APP751 cells were treated with STS in serum free media. Total RNA was extracted using TRIZOL (Invitrogen). 20 μg of the resulting RNA were analyzed by Northern blot analysis performed as previously described (Koh, Y. H. et al., Faseb J 15, 1472-4 (2001)). Human cDNA of BACE, PS1 , nicastrin, Pen-2, Aph1a was labeled with [α-^32P]dCTP (PerkinElmer) using random hexanucleotide primers (Prime-a-gene labeling system; Promega). Ethidium staining of the gel (lower panel) confirmed equal RNA loading.
We next asked whether apoptosis increases protein levels of BACE, PS1, nicastrin, Pen-2 and Aph1a via increased synthesis. […] We next asked whether BACE, PS1, nicastrin, Pen-2 and Aph1a protein levels are increased during apoptosis due to decreased degradation. […] In contrast, TACE, full-length APP, and APP-CTFs were not stabilized during apoptosis (FIG. 15a). Given that the components of the β-amyloidogenic secretases are stabilized during apoptosis while many other proteins are degraded (e.g. TACE, APP), the apparent increase of protein levels at the latest time points of the CHX+STS time course was most likely due to a relative increase of stabilized protein when normalized for the equal amounts of total protein.

SMILES	upregulation of γ-secretase complex proteins during STS-induced apoptosis [1]	immature nicastrin levels increase [2] [fold]	protein levels of PS1, Pen-2 and Aph1a [2]	BACE, PS1, nicastrin, Pen-2 and Aph1a mRNA levels [3]
COC(=O)C[C@H](NC(=O)[C@H](C)NC(=O)[C@@H](NC(=O)OCc1ccccc1)C(C)C)C(=O)CF [zVAD] (Cbz-Val-Ala-Asp(OMe)-CH2F)	prevented upregulation			
CN[C@@H]1C[C@H]2O[C@@](C)([C@@H]1OC)n1c3ccccc3c3c4c(c5c6ccccc6n2c5c31)C(=O)NC4 [STS, staurosporine]		~1.5	unchanged	virtually undetectable

From patent US7326540B2, “Methods for identifying compounds that modulate stabilization of secretase-associated proteins” (priority 2003, dated 2008)
